From publication PMC12354831 (Cell Death Discovery, 2025)
Values joined by “and” are separate entries in the source; they are usually repeats but may differ in a detail not shown here. Identical values can stand only once. Like-named read-outs stand apart in the source and are kept apart here.

Key:
GLUT3 [1] = target: T1, GLUT3 (Homo sapiens, UniProt P11169); assay: 2-NBDG glucose uptake competition assay in GLUT3-OE vs vector control U251-MG cells; assay type: cell-based; details: for reduction in 2-NBDG uptake: GLUT3 OE U251-MG cells, 100 μM 2-NBDG
T1 construct: expressed in transfected cells
T1 sequence (P11169 1-496): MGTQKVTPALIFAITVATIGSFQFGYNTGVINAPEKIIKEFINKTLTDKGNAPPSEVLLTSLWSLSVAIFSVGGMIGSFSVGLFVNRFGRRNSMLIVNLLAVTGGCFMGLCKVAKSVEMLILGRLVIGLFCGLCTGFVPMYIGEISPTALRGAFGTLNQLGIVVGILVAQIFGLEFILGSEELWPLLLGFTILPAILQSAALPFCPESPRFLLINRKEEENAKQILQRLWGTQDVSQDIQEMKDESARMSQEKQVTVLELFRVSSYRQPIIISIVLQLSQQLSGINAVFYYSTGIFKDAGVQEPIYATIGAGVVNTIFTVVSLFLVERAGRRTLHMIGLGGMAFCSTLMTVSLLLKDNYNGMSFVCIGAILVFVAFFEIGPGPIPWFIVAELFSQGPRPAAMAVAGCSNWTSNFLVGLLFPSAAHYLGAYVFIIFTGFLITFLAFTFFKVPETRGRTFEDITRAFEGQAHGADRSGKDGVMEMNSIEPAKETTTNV
Description: GBM cells were seeded into 96-well plates at a density of 4 × 10^4 cells per well and allowed to adhere for 24 h. After 6–12 h, the culture medium (containing 10% fetal bovine serum, FBS) was removed, and the cells were incubated in 100 µL of glucose-free DMEM medium for 1 h at 37 °C in a humidified atmosphere containing 5% CO2. The glucose-free medium was then replaced with 100 µL of DMEM containing 100 µM 2-NBDG, and the cells were incubated for an additional 30 min at 37 °C. Following incubation, the cells were washed three times with cold PBS to remove unincorporated 2-NBDG. The fluorescence intensity was immediately measured using a Synergy™ H1 automatic microplate reader with excitation and emission wavelengths set at 485 nm and 528 nm, respectively.
After 30 min of incubation at 37 °C, the cells were washed three times with cold PBS, and the fluorescence intensity was measured as described above.

GLUT3 [2] = target: T1, GLUT3; assay: Microscale thermophoresis (MST) binding assay, GLUT3-GFP in cell lysates
Description: (§1) Data from three independent measurements were analyzed using MO. Affinity Analysis software (version 2.1.3, NanoTemper Technologies).

GLUT3 mutants = assay: MST binding assay, GLUT3 mutants taken together vs WT; design: species or system human
Description: as §1

U251-MG cells = assay: Colony formation assay in U251-MG cells overexpressing GLUT3 Q159A, W386A or WT; assay type: cell-based, human; details: TMZ 200 μM or CAPE 400 μM every two days
Description: GBM cells were harvested using 0.25% trypsin when cell viability was confirmed to be optimal, and the cell concentration was determined using a hemocytometer. A total of 1 × 10³ cells were seeded into each well of a 6-well plate and incubated at 37 °C overnight. The following day, cell morphology was examined under an inverted microscope. The culture medium was replaced every 2 days, and cell growth was monitored regularly. When cell colonies exceeded 50 cells, they were recorded. The cells were then washed with pre-warmed PBS. Subsequently, the cells were fixed with 4% paraformaldehyde (1 mL per well) for 20 min at room temperature. After fixation, the cells were washed three times with PBS. A total of 1 mL of 0.1% crystal violet staining solution was added to each well for 20 min. The wells were then washed three times with distilled water, covered with a plate lid, and left to dry overnight. The number of colonies in each well was quantified using ImageJ software.
The medium was replaced every 2 days. When colonies visible to the naked eye had formed, the cells were fixed with 4% paraformaldehyde and stained with 0.1% crystal violet as described above. The colonies were then quantified using ImageJ software for statistical analysis.

[3] = tested on: U251-MG cell-derived xenograft; assay: TMZ and CAPE levels in nude mouse xenograft tumors by LC-MS/MS; assay type: in vivo, nude mice (BALB/c-nu); details: nude mice, TMZ 40 mg/kg or CAPE 20 mg/kg every 3 days; for drug level in GLUT3-overexpressing tumors relative to controls: fasting groups (24 h fast before each dose); for drug concentration in GLUT3 overexpressing tumors relative to controls: regular diet
Description: TMZ and CAPE levels in tumors from nude mice were measured using LC-MS/MS. Tumor tissues were excised from the mice and homogenized. The homogenized samples were then centrifuged at maximum speed (~14,000 × g) at 4 °C for 10 min. The supernatant was collected and transferred to a new centrifuge tube.
For LC-MS/MS analysis, the supernatants were diluted to an appropriate concentration. A total of 100 µL of each sample was mixed with 100 µL of acetonitrile (or standard reagent) and 300 µL of internal standard solution (^2H3-TMZ 100 ng/mL and ^2H11-CAPE 20 ng/mL dissolved in acetonitrile). […] To ensure the stability and repeatability of the instrument analysis, QC samples were prepared and analyzed alongside the experimental samples. QC samples were inserted regularly and analyzed every 6–12 samples. Each experiment was repeated 6 times.
LC-MS/MS analyses were performed using an HPLC system (Shimadzu, LC-20A) coupled to a SCIEX Triple Quad™ 7500 mass spectrometer. The samples were separated on a Syncronis HILIC column (2.1 × 100 mm, 1.7 µm; Thermo Scientific). The mobile phases consisted of: Mobile phase A (0.1% formic acid and 2.5 mM ammonium acetate in water) and Mobile phase B (0.1% formic acid and 2.5 mM ammonium acetate in acetonitrile). Gradient elution was employed, with the flow rates and gradient conditions detailed in Table S4.
The mass spectrometry conditions were as follows: Ion source: electrospray ionization (ESI); Detection mode: positive ion mode; Scanning method: multiple reaction monitoring (MRM); Spray voltage (IS): 5500 V; Ion source temperature (TEM): 555 °C; Gas curtain pressure (CUR): 25 psi; Collision activation dissociation (CAD): MEDIUM; Nebulizer gas pressure (GS1): 55 psi; Auxiliary gas pressure (GS2): 55 psi.
(§2) All animal studies were approved and supervised by the Ethics Committee for Animal Use and Care at Peking University. Nude mice (BALB/c-nu) were purchased and maintained as previously described. For the establishment of xenograft tumor models, 1 × 10^6 U251-MG cells (either negative vector control or overexpressing GLUT3) were injected into the bilateral axillary fossae of 4-week-old nude mice. After 7 days, when palpable tumors had formed, the mice were randomly divided into six experimental groups (n = 7 per group), and treatment was initiated immediately.

[4] = tested on: U251-MG cell-derived xenograft; assay: Tumor growth in U251-MG cell-derived xenograft model; assay type: in vivo, nude mice (BALB/c-nu); details: TMZ 40 mg/kg or CAPE 20 mg/kg every 3 days; for effect of fasting on tumor growth under drug treatment: GLUT3-overexpressing tumors, 24 h fast before each dose vs non-fasting; for effect on tumor growth vs saline groups: nude mice
Description: as §2
Tumor diameters were measured every 4 days using calipers. At the end of the study, all mice were sacrificed, and the tumors were carefully excised and weighed. Tumor volume was calculated using the formula V = (length*width^2)/2. Data were analyzed using statistical software to evaluate the differences among groups.

[5] = across the tested GBM cell lines (U343-MG, U251-MG), read-out: Kd values
[6] = GLUT3 Q159A vs GLUT3 WT overexpression
[7] = GLUT3 W386A vs GLUT3 WT overexpression

Row | Structure (SMILES) | reduction in 2-NBDG uptake (GLUT3 [1]; 1 μM drug) [%] | reduction in 2-NBDG uptake (GLUT3 [1]; 10 μM drug) [%] | reduction in 2-NBDG uptake (GLUT3 [1]; 100 μM drug) [%] | Kd (GLUT3 [2]; U251-MG lysate, GLUT3-GFP, pH 6.8, read-out: Kd) [nM] | Kd (GLUT3 [2]; [5]) | Kd increase vs WT (GLUT3 mutants; seven mutants) [fold] | fold increase in colony numbers (U251-MG cells; [6]) [fold] | fold increase in colony numbers (U251-MG cells; [7]) [fold] | drug level in GLUT3-overexpressing tumors relative to controls [3] [fold] | drug concentration in GLUT3 overexpressing tumors relative to controls [3] | effect of fasting on tumor growth under drug treatment [4] | effect on tumor growth vs saline groups [4] | effect on glucose (2-NBDG) uptake in control cells (GLUT3 [1]; vector control U251-MG cells, until concentration reached 100 μM) | Kd increase vs WT (GLUT3 mutants; mutants T28A, S71A, Q281A, N286A, W386A, and G417A) [fold]
1 | CCCCCOC(=O)Nc1nc(=O)n([C@@H]2O[C@H](C)[C@@H](O)[C@H]2O)cc1F [CAPE, capecitabine] | 39.4 | 51.5 | 69.3 | 1800 ± 1100 | 1000 to 3000 nM and 900 to 3500 nM | > 1000 | 1.7 | 4.4 | 3.54 | 1.52 fold | significantly inhibited tumor growth | reducing tumor weights and volumes | – | –
2 | Cn1nnc2c(C(N)=O)ncn2c1=O [TMZ] | 36.8 | 47.2 | 70.1 | – | 300 to 700 nM | – | 0.97 | 7.3 | 1.34 | ~ 1.95 fold | significantly inhibited tumor growth | reducing tumor weights and volumes | minimally affected | > 1000
